Measured values from the supplement of paper PMC10307832.

Key:
Test in all cases: relative viability (nuclei count vs DMSO), 5 days (fraction); higher = more cells survive
BI-D1870 + Alpelisib = compound: CC(C)CCN1c2nc(Nc3cc(F)c(O)c(F)c3)ncc2N(C)C(=O)C1C [BI-D1870] + Cc1nc(NC(=O)N2CCC[C@H]2C(N)=O)sc1-c1ccnc(C(C)(C)C(F)(F)F)c1 [Alpelisib] (partner 2 µM)
In short: (§1)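 Relative viability is defined as nuclei in treated wells over nuclei in vehicle wells. Duplicate plates were run and medians reported. Lung cancer cell lines in 1536-well plates were dosed by pin tool one day after seeding, with one drug or with a fixed anchor-drug dose plus five library-drug doses (not always all listed) in √10 steps, and nuclei were counted after 5 days.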

Zebularine + Foretinib = compound: O=c1ncccn1[C@@H]1O[C@H](CO)[C@@H](O)[C@H]1O [Zebularine] + COc1cc2c(Oc3ccc(NC(=O)C4(C(=O)Nc5ccc(F)cc5)CC4)cc3F)ccnc2cc1OCCCN1CCOCC1 [Foretinib] (partner 0.25 µM)
In short: as §1

BI-D1870 + Dasatinib = compound: CC(C)CCN1c2nc(Nc3cc(F)c(O)c(F)c3)ncc2N(C)C(=O)C1C [BI-D1870] + Cc1nc(Nc2ncc(C(=O)Nc3c(C)cccc3Cl)s2)cc(N2CCN(CCO)CC2)n1 [Dasatinib] (partner 0.075 µM)
In short: as §1

Zebularine + Crizotinib = compound: O=c1ncccn1[C@@H]1O[C@H](CO)[C@@H](O)[C@H]1O [Zebularine] + C[C@@H](Oc1cc(-c2cnn(C3CCNCC3)c2)cnc1N)c1c(Cl)ccc(F)c1Cl [Crizotinib] (partner 1 µM)
In short: as §1

Cell Line | relative viability (BI-D1870 + Alpelisib; first compound 0.04 µM) | relative viability (BI-D1870 + Alpelisib; first compound 0.1265 µM) | relative viability (BI-D1870 + Alpelisib; first compound 0.4 µM) | relative viability (BI-D1870 + Alpelisib; first compound 1.265 µM) | relative viability (BI-D1870 + Alpelisib; first compound 4 µM) | relative viability (Zebularine + Foretinib; first compound 1 µM) | relative viability (Zebularine + Foretinib; first compound 3.162 µM) | relative viability (Zebularine + Foretinib; first compound 10 µM) | relative viability (Zebularine + Foretinib; first compound 31.62 µM) | relative viability (Zebularine + Foretinib; first compound 100 µM) | relative viability (BI-D1870 + Dasatinib; first compound 0.04 µM) | relative viability (BI-D1870 + Dasatinib; first compound 0.1265 µM) | relative viability (BI-D1870 + Dasatinib; first compound 0.4 µM) | relative viability (BI-D1870 + Dasatinib; first compound 1.265 µM) | relative viability (BI-D1870 + Dasatinib; first compound 4 µM) | relative viability (Zebularine + Crizotinib; first compound 1 µM) | relative viability (Zebularine + Crizotinib; first compound 3.162 µM) | relative viability (Zebularine + Crizotinib; first compound 10 µM) | relative viability (Zebularine + Crizotinib; first compound 31.62 µM) | relative viability (Zebularine + Crizotinib; first compound 100 µM)
NCI-H2085 | 0.986 | 0.886 | 0.92 | 0.938 | 0.74 | 0.879 | 1.06 | 0.785 | 0.833 | 0.503 | 0.246 | 0.246 | 0.222 | 0.239 | 0.281 | 0.986 | 0.814 | 0.827 | 0.804 | 0.488
NCI-H2087 | 1.15 | 1.05 | 1.09 | 1.23 | 0.877 | 1.06 | 1.04 | 0.782 | 0.791 | 0.284 | 0.93 | 0.798 | 0.921 | 0.891 | 0.743 | 1.07 | 0.803 | 0.551 | 0.654 | 0.197
NCI-H2126 | 0.749 | 0.786 | 0.781 | 0.759 | 0.723 | 1.44 | 1.09 | 0.97 | 1.06 | 0.883 | 0.575 | 0.6 | 0.55 | 0.548 | 0.483 | 1.11 | 0.987 | 0.958 | 0.804 | 0.503
NCI-H2170 | 0.867 | 0.705 | 0.818 | 0.751 | 0.772 | 0.983 | 1.02 | 0.909 | 0.98 | 0.611 | 0.735 | 0.584 | 0.529 | 0.54 | 0.575 | 1.31 | 1.13 | 0.7 | 0.981 | 0.517
NCI-H2228 | 0.669 | 0.568 | 0.876 | 0.602 | 0.35 | 0.902 | 0.898 | 0.507 | 0.914 | 0.281 | 0.543 | 0.403 | 0.553 | 0.544 | 0.337 | 0.462 | 0.38 | 0.42 | 0.521 | 0.37
NCI-H2347 | 1.07 | 0.984 | 0.816 | 1.14 | 0.848 | 1.02 | 0.856 | 0.881 | 0.614 | 0.813 | 0.345 | 0.319 | 0.332 | 0.306 | 0.297 | 0.682 | 0.676 | 0.618 | 0.516 | 0.381
NCI-H2405 | 0.976 | 0.766 | 0.769 | 0.789 | 0.705 | 1.04 | 1.05 | 1.07 | 0.986 | 0.664 | 0.253 | 0.19 | 0.218 | 0.215 | 0.219 | 0.845 | 0.825 | 0.621 | 0.846 | 0.56
NCI-H3122 | 0.721 | 0.643 | 0.724 | 0.852 | 0.749 | 1.02 | 0.939 | – | 1.02 | 0.969 | 0.845 | 0.744 | 0.834 | 0.955 | 0.92 | 0.268 | 0.248 | 0.243 | 0.298 | 0.235
PC-3 [JPC-3] | 1.07 | 0.971 | 1.03 | 1.13 | 1 | 1.09 | 1.07 | 0.67 | 0.829 | 0.444 | 1 | 0.892 | 1.01 | 1.12 | 0.947 | 1.09 | 0.943 | 0.64 | 0.699 | 0.476
PC-14 | 1.15 | 0.882 | 0.913 | 0.837 | 0.862 | 1.03 | 0.878 | 0.48 | 0.191 | 0.158 | 0.27 | 0.241 | 0.272 | 0.239 | 0.259 | 1.01 | 0.81 | 0.271 | 0.141 | 0.122
RERF-LC-KJ | 0.835 | 0.76 | 0.761 | 0.688 | 0.689 | 1 | 0.879 | – | 0.895 | 0.871 | 0.968 | 0.72 | 0.762 | 0.814 | 0.495 | 1.01 | 0.826 | – | 0.885 | 0.977
SK-LU-1 | 1.04 | 0.879 | 0.807 | 0.653 | 0.237 | 0.884 | 0.8 | 0.47 | 0.651 | 0.444 | 0.18 | 0.165 | 0.132 | 0.229 | 0.153 | 1.02 | 0.843 | 0.531 | 0.79 | 0.583
SK-MES-1 | 0.956 | 0.859 | 0.78 | 0.973 | 0.644 | 1.12 | 0.828 | 0.794 | 0.742 | 0.337 | 0.44 | 0.369 | 0.323 | 0.362 | 0.3 | 1.07 | 1.03 | 0.645 | 0.648 | 0.325
SW 1573 | 0.934 | 0.64 | 0.723 | 0.794 | 0.661 | 0.871 | 0.767 | 0.802 | 0.999 | 0.885 | 0.625 | 0.456 | 0.594 | 0.472 | 0.213 | 0.72 | 0.776 | 0.44 | 0.831 | 0.574
